These results are taken from ChEMBL document CHEMBL1139227, “Discovery of a series of 6,7-dimethoxy-4-pyrrolidylquinazoline PDE10A inhibitors” (J Med Chem, 2007).

Activity calls are given as the source filed them. No cut-off for these calls is given here.

By Ki is commonly meant a dissociation constant, usually derived from enzyme kinetics or from competition with a known ligand. The term IC50 denotes the concentration that inhibits the measured activity by half.

cGMP-inhibited 3',5'-cyclic phosphodiesterase 3B, sequence (Q13370 whole entry): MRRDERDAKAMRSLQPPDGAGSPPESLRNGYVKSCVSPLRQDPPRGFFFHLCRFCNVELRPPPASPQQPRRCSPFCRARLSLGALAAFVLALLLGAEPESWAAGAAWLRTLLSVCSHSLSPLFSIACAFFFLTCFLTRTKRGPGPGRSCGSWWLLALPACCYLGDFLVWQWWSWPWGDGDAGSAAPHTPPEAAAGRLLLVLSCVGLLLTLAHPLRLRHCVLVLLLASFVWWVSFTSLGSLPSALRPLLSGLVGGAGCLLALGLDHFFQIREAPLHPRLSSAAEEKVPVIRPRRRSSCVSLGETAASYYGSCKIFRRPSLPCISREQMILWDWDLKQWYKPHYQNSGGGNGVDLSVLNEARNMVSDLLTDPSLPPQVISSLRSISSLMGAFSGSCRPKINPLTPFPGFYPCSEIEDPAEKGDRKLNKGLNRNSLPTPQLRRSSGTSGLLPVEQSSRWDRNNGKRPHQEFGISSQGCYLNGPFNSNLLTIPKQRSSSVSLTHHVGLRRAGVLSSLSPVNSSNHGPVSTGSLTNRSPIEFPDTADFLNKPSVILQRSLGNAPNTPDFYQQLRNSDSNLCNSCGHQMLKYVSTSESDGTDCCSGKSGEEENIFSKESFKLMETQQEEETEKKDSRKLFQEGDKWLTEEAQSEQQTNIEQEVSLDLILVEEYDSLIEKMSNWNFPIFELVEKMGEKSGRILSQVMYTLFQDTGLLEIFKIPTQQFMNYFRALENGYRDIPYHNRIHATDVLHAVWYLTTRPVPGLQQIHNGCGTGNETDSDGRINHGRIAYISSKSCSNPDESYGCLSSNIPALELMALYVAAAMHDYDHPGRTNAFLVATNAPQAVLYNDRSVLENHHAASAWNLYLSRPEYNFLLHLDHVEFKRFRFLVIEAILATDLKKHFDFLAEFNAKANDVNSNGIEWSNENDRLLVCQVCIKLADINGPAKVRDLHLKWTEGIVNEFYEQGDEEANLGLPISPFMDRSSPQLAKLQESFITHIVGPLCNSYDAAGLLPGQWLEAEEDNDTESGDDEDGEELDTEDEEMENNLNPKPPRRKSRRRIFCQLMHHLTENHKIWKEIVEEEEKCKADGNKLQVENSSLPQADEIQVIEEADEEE

The subject of one assay is Mus musculus. Put plainly: Increase of phosphorylated CREB level in CD1 mice striatal tissue at 32 mg/kg, sc after 30 mins. Format: functional, organism-based. Also on record: dose 32 mg/kg. The conditions noted are these: Striatum.
As for `COc1cc2ncnc(N3CC[C@@H](Oc4cnc5ccccc5n4)C3)c2cc1OC`, the outcome was Active.

The target of the next assay is cGMP-inhibited 3',5'-cyclic phosphodiesterase 3A (Homo sapiens, UniProt Q14432). Put plainly: Inhibition of human recombinant PDE3A transfected in Sf9 cells by SPA.
cGMP-inhibited 3',5'-cyclic phosphodiesterase 3A, sequence (Q14432 whole entry): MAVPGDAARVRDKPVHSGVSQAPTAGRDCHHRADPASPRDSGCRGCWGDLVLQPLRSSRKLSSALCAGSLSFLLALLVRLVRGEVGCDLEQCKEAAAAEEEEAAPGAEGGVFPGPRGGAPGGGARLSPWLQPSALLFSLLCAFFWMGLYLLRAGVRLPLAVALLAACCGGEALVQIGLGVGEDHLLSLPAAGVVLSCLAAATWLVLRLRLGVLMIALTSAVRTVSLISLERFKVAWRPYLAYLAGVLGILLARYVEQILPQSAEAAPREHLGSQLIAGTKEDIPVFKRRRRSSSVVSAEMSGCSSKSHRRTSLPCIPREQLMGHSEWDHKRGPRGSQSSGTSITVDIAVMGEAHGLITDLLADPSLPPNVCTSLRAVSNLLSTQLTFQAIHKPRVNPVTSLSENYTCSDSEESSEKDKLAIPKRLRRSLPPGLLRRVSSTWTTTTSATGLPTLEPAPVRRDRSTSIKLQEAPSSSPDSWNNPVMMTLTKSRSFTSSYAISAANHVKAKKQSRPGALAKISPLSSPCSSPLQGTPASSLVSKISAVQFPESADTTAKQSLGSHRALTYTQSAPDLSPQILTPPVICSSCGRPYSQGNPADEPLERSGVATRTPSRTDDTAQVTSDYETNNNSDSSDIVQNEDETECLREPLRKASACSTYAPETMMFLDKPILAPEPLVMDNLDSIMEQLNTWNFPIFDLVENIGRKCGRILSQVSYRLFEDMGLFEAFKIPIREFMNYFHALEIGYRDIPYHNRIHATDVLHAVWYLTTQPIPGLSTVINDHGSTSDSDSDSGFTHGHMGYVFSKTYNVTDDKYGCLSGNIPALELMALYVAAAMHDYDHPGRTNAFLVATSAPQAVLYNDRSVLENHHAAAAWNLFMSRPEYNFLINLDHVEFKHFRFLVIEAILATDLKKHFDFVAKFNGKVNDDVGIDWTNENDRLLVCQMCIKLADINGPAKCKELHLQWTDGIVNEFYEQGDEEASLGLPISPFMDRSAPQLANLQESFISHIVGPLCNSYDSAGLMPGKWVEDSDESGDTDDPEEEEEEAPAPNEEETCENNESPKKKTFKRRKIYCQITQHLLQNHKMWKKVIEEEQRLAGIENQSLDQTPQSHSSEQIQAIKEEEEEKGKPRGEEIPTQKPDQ
Settings: not given
For `COc1cc2ncnc(N3CC[C@@H](Oc4cccc5ccccc45)C3)c2cc1OC`, the Ki was found to be 48 nM.
Consider `COc1ccc2ccc(O[C@@H]3CCN(c4ncnc5cc(OC)c(OC)cc45)C3)cc2c1`, for which the Ki amounted to 273 nM.
The same measure, in the same setting: the figure for `COc1cc2ncnc(N3CC[C@@H](Oc4ccc5ncccc5c4)C3)c2cc1OC` is 104 nM; for `COc1cc2ncnc(N3CC[C@@H](Oc4ccc(C#N)cc4)C3)c2cc1OC` it is 214 nM.
The same measure, in the same setting: the value for `COc1cc2ncnc(N3CC[C@@H](Oc4ccc5cccnc5c4)C3)c2cc1OC` was 209 nM.
The same measure, in the same setting: the figure for `COc1cc2ncnc(N3CC[C@@H](Oc4ccccc4C#N)C3)c2cc1OC` is < 100 nM.
Consider `COc1cc2ncnc(N3CC[C@@H](Oc4ccccc4Cl)C3)c2cc1OC`, for which the Ki is < 100 nM.
As for `COc1cc2ncnc(N3CC[C@@H](Oc4cc5ccccc5cn4)C3)c2cc1OC`, the Ki is 151 nM.
Take `COc1cc2ncnc(N3CC[C@@H](Oc4ccccc4OC)C3)c2cc1OC`: the Ki is < 100 nM.
Take `COc1cc2ncnc(N3CC[C@@H](Oc4ccc(C(C)(C)C)cc4)C3)c2cc1OC`: the Ki stood at 720 nM.
`COc1cc2ncnc(N3CC[C@@H](Oc4ccccn4)C3)c2cc1OC`: the Ki turned out to be 77 nM.
On the same count and under the same terms, the figure for `COc1cc2ncnc(N3CC[C@@H](Oc4ccccc4C)C3)c2cc1OC` is < 100 nM; for `COc1cc2ncnc(N3CC[C@@H](Oc4ccccc4C(F)(F)F)C3)c2cc1OC` it is < 100 nM; for `COc1ccc(O[C@@H]2CCN(c3ncnc4cc(OC)c(OC)cc34)C2)cc1OC` it is 121 nM.
Take `COc1cc2ncnc(N3CC[C@@H](Oc4ccc5c(c4)CCC5)C3)c2cc1OC`: the Ki worked out at 141 nM.
In the case of `COc1ccc2cc(O[C@@H]3CCN(c4ncnc5cc(OC)c(OC)cc45)C3)ccc2c1`, the Ki came to 199 nM.
For the compound `COc1cc2ncnc(N3CC[C@H](Oc4ccccc4OC)C3)c2cc1OC`, the Ki is > 100 nM.
The same measure, in the same setting: the figure for `COc1cc2ncnc(N3CC[C@@H](Oc4cccnc4)C3)c2cc1OC` is 302 nM.
In the case of `COc1cc2ncnc(N3CC[C@@H](Oc4cnc5ccccc5n4)C3)c2cc1OC`, the inhibition constant Ki was 211 nM.
Turning to `COc1cc2ncnc(N3CC[C@@H](Oc4ncc(Cl)cn4)C3)c2cc1OC`, the inhibitory constant (Ki) came out at 162 nM.
Regarding `COc1cc2ncnc(N3CC[C@@H](Oc4ccc5ccccc5c4)C3)c2cc1OC`, the Ki is 283 nM.
Take `CCOc1cccc(O[C@@H]2CCN(c3ncnc4cc(OC)c(OC)cc34)C2)c1`: the Ki stood at 61 nM.
Turning to `COc1cc2ncnc(N3CC[C@@H](Oc4cccc(C(C)C)c4)C3)c2cc1OC`, the Ki was 370 nM.
As to `COc1cc2ncnc(N3CC[C@@H](Oc4cccc(-c5ccccc5)c4)C3)c2cc1OC`, the inhibition constant (Ki) amounted to 271 nM.
For the compound `COc1cc2ncnc(N3CC[C@@H](Oc4ccc(OC(F)(F)F)cc4)C3)c2cc1OC`, the inhibitory constant (Ki) is 739 nM.
With `CCOc1ccc(O[C@@H]2CCN(c3ncnc4cc(OC)c(OC)cc34)C2)cc1`, the inhibitory constant (Ki) was 161 nM.
For `COc1cc2ncnc(N3CC[C@@H](Oc4ccc5nc(C)ccc5c4)C3)c2cc1OC`, the Ki amounted to 152 nM.
Same read-out and setting: the figure for `COc1cc2ncnc(N3CC[C@@H](Oc4ccncc4)C3)c2cc1OC` is 226 nM.

A further assay relates to Mus musculus. Put plainly: Increase of cGMP level in CD1 mouse striatal tissue at 10 mg/kg, sc. In kind it is functional, organism-based. Set-up: dose 10 mg/kg. The conditions noted are these: Striatum.
On to `COc1cc2ncnc(N3CC[C@@H](Oc4cnc5ccccc5n4)C3)c2cc1OC`, for which the outcome was Active.

Another assay concerns the target cGMP-inhibited 3',5'-cyclic phosphodiesterase 3B (Homo sapiens, UniProt Q13370). Description: Inhibition of human recombinant PDE3B transfected in Sf9 cells by SPA.
Settings: not given
On to `COc1cc2ncnc(N3CC[C@@H](Oc4cccc5ccccc45)C3)c2cc1OC`, for which the inhibitory constant (Ki) is 56 nM.
As to `COc1ccc2ccc(O[C@@H]3CCN(c4ncnc5cc(OC)c(OC)cc45)C3)cc2c1`, the inhibition constant (Ki) came out at 305 nM.
Take `COc1cc2ncnc(N3CC[C@@H](Oc4ccc5ncccc5c4)C3)c2cc1OC`: the inhibition constant Ki stood at 201 nM.
`COc1cc2ncnc(N3CC[C@@H](Oc4ccc(C#N)cc4)C3)c2cc1OC`: the inhibition constant Ki came out at 471 nM.
Take `COc1cc2ncnc(N3CC[C@@H](Oc4ccc5cccnc5c4)C3)c2cc1OC`: the Ki is 240 nM.
Same read-out and setting: the value for `COc1cc2ncnc(N3CC[C@@H](Oc4ccccc4C#N)C3)c2cc1OC` was < 100 nM.
In the case of `COc1cc2ncnc(N3CC[C@@H](Oc4ccccc4Cl)C3)c2cc1OC`, the Ki is < 100 nM.
As for `COc1cc2ncnc(N3CC[C@@H](Oc4cc5ccccc5cn4)C3)c2cc1OC`, the inhibitory constant (Ki) came out at 196 nM.
`COc1cc2ncnc(N3CC[C@@H](Oc4ccccc4OC)C3)c2cc1OC`: the Ki was > 100 nM.
The same measure, in the same setting: the figure for `COc1cc2ncnc(N3CC[C@@H](Oc4ccc(C(C)(C)C)cc4)C3)c2cc1OC` is 1890 nM.
Take `COc1cc2ncnc(N3CC[C@@H](Oc4ccccn4)C3)c2cc1OC`: the inhibition constant Ki is 207 nM.
In the case of `COc1cc2ncnc(N3CC[C@@H](Oc4ccccc4C)C3)c2cc1OC`, the Ki was < 100 nM.
On to `COc1cc2ncnc(N3CC[C@@H](Oc4ccccc4C(F)(F)F)C3)c2cc1OC`, for which the Ki is > 100 nM.
With `COc1ccc(O[C@@H]2CCN(c3ncnc4cc(OC)c(OC)cc34)C2)cc1OC`, the inhibitory constant (Ki) came out at 260 nM.
In the case of `COc1cc2ncnc(N3CC[C@@H](Oc4ccc5c(c4)CCC5)C3)c2cc1OC`, the Ki worked out at 237 nM.
Regarding `COc1ccc2cc(O[C@@H]3CCN(c4ncnc5cc(OC)c(OC)cc45)C3)ccc2c1`, the Ki was 280 nM.
Regarding `COc1cc2ncnc(N3CC[C@H](Oc4ccccc4OC)C3)c2cc1OC`, the Ki is > 100 nM.
On to `COc1cc2ncnc(N3CC[C@@H](Oc4cccnc4)C3)c2cc1OC`, for which the Ki is 748 nM.
Take `COc1cc2ncnc(N3CC[C@@H](Oc4cnc5ccccc5n4)C3)c2cc1OC`: the Ki was 273 nM.
Consider `COc1cc2ncnc(N3CC[C@@H](Oc4ncc(Cl)cn4)C3)c2cc1OC`, for which the Ki was 332 nM.
Still for that read-out and setting: the value for `COc1cc2ncnc(N3CC[C@@H](Oc4ccc5ccccc5c4)C3)c2cc1OC` was 463 nM; that for `CCOc1cccc(O[C@@H]2CCN(c3ncnc4cc(OC)c(OC)cc34)C2)c1` was 88 nM.
Same read-out and setting: the figure for `COc1cc2ncnc(N3CC[C@@H](Oc4cccc(C(C)C)c4)C3)c2cc1OC` is 474 nM.
Regarding `COc1cc2ncnc(N3CC[C@@H](Oc4cccc(-c5ccccc5)c4)C3)c2cc1OC`, the Ki was 280 nM.
As to `COc1cc2ncnc(N3CC[C@@H](Oc4ccc(OC(F)(F)F)cc4)C3)c2cc1OC`, the Ki came out at 1820 nM.
The same measure, in the same setting: the value for `CCOc1ccc(O[C@@H]2CCN(c3ncnc4cc(OC)c(OC)cc34)C2)cc1` was 328 nM.
With `COc1cc2ncnc(N3CC[C@@H](Oc4ccc5nc(C)ccc5c4)C3)c2cc1OC`, the Ki came to 223 nM.
For the compound `COc1cc2ncnc(N3CC[C@@H](Oc4ccncc4)C3)c2cc1OC`, the Ki turned out to be 685 nM.

The next assay concerns Mus musculus. Description: Increase of cGMP level in CD1 mouse striatal tissue at 32 mg/kg, sc. Format: functional, organism-based. Set-up: dose 32 mg/kg. The note with it: Striatum.
With `COc1cc2ncnc(N3CC[C@@H](Oc4cnc5ccccc5n4)C3)c2cc1OC`, the outcome was Active.

The next assay relates to Mus musculus. Description: Increase of phosphorylated CREB level in CD1 mice striatal tissue at 32 mg/kg, sc after 90 mins. In kind it is functional, organism-based. Also on record: dose 32 mg/kg. The note with it: Striatum.
In the case of `COc1cc2ncnc(N3CC[C@@H](Oc4cnc5ccccc5n4)C3)c2cc1OC`, the outcome was Active.

Test system in the next assay: not listed separately
Put plainly: Inhibition of rat recombinant PDE10A transfected in Sf9 cells by SPA.
Settings: not given
Turning to `COc1cc2ncnc(N3CC[C@@H](Oc4cccc5ccccc45)C3)c2cc1OC`, the Ki amounted to 210 nM.
On the same count and under the same terms, the value for `COc1ccc2ccc(O[C@@H]3CCN(c4ncnc5cc(OC)c(OC)cc45)C3)cc2c1` was 17 nM; that for `COc1cc2ncnc(N3CC[C@@H](Oc4ccc5ncccc5c4)C3)c2cc1OC` was 12 nM; that for `COc1cc2ncnc(N3CC[C@@H](Oc4ccc5cccnc5c4)C3)c2cc1OC` was 12 nM.
For `COc1cc2ncnc(N3CC[C@@H](Oc4ccccc4C#N)C3)c2cc1OC`, the Ki stood at 130 nM.
Consider `COc1cc2ncnc(N3CC[C@@H](Oc4ccccc4Cl)C3)c2cc1OC`, for which the Ki was 198 nM.
Consider `COc1cc2ncnc(N3CC[C@@H](Oc4cc5ccccc5cn4)C3)c2cc1OC`, for which the Ki stood at 19 nM.
Still for that read-out and setting: the value for `COc1cc2ncnc(N3CC[C@@H](Oc4ccccc4OC)C3)c2cc1OC` was 240 nM.
For `COc1cc2ncnc(N3CC[C@@H](Oc4ccc(C(C)(C)C)cc4)C3)c2cc1OC`, the Ki turned out to be 100 nM.
As for `COc1cc2ncnc(N3CC[C@@H](Oc4ccccn4)C3)c2cc1OC`, the Ki was found to be 123 nM.
`COc1cc2ncnc(N3CC[C@@H](Oc4ccccc4C)C3)c2cc1OC`: the Ki is 326 nM.
On the same count and under the same terms, the figure for `COc1cc2ncnc(N3CC[C@@H](Oc4ccccc4C(F)(F)F)C3)c2cc1OC` is 811 nM; for `COc1ccc(O[C@@H]2CCN(c3ncnc4cc(OC)c(OC)cc34)C2)cc1OC` it is 67 nM; for `COc1cc2ncnc(N3CC[C@@H](Oc4ccc5c(c4)CCC5)C3)c2cc1OC` it is 68 nM.
Take `COc1ccc2cc(O[C@@H]3CCN(c4ncnc5cc(OC)c(OC)cc45)C3)ccc2c1`: the Ki worked out at 18 nM.
As to `COc1cc2ncnc(N3CC[C@H](Oc4ccccc4OC)C3)c2cc1OC`, the Ki worked out at 641 nM.
Regarding `COc1cc2ncnc(N3CC[C@@H](Oc4cccnc4)C3)c2cc1OC`, the Ki was 128 nM.
On to `COc1cc2ncnc(N3CC[C@@H](Oc4cnc5ccccc5n4)C3)c2cc1OC`, for which the IC50 stood at 6 nM.
As for `COc1cc2ncnc(N3CC[C@@H](Oc4ncc(Cl)cn4)C3)c2cc1OC`, the inhibitory constant (Ki) is 44 nM.
`COc1cc2ncnc(N3CC[C@@H](Oc4ccc5ccccc5c4)C3)c2cc1OC`: the half-maximal inhibitory concentration (IC50) is 14 nM.
For the compound `COc1ccc(Cc2nccc3cc(OC)c(OC)cc23)cc1OC` [PAPAVERINE], the inhibition constant (Ki) was 17 nM.
Consider `CCOc1cccc(O[C@@H]2CCN(c3ncnc4cc(OC)c(OC)cc34)C2)c1`, for which the Ki amounted to 94 nM.
As for `COc1cc2ncnc(N3CC[C@@H](Oc4cccc(C(C)C)c4)C3)c2cc1OC`, the inhibition constant Ki was 171 nM.
In the case of `COc1cc2ncnc(N3CC[C@@H](Oc4cccc(-c5ccccc5)c4)C3)c2cc1OC`, the inhibition constant Ki was 136 nM.
As for `COc1cc2ncnc(N3CC[C@@H](Oc4ccc(OC(F)(F)F)cc4)C3)c2cc1OC`, the inhibition constant Ki stood at 185 nM.
As for `COc1cc2ncnc(N3CCc4ccc(S(=O)(=O)N5CCN(C)CC5)cc4C3)c2cc1OC`, the inhibition constant (Ki) was 25 nM.
Consider `CCOc1ccc(O[C@@H]2CCN(c3ncnc4cc(OC)c(OC)cc34)C2)cc1`, for which the Ki worked out at 54 nM.
Same read-out and setting: the figure for `COc1cc2ncnc(N3CC[C@@H](Oc4ccc5nc(C)ccc5c4)C3)c2cc1OC` is 18 nM; for `COc1cc2ncnc(N3CC[C@@H](Oc4ccncc4)C3)c2cc1OC` it is 112 nM.
